Measured values taken from US20240238423A9, “TETRAHYDROISOQUINOLINE HETEROBIFUNCTIONAL BCL-XL DEGRADERS” (Treeline Biosciences, Inc., priority 2022, published 2024).
Like-named read-outs stand apart in the source and are kept apart here.

Biological target: T1, Human BCL-XL protein (N-terminal HiBiT tagged BCL-XL in HT1080 cells) (Homo sapiens, UniProt Q07817)
T1 construct: expressed in transfected cells; host or cells: HT-1080 (ATCC CCL-121), stably transduced with lentivirus pLV-UBC-N-HiBiT-BCL-XL-PGK-puro and selected with puromycin
Experiment: HiBiT based degradation assay
Type: cell-based
Settings: HT1080 cells expressing HiBiT-BCL-XL; for Ymin (6 h) / Ymin (24 h): BCL-XL degradation normalized with DMSO control; for DC50: BCL-XL degradation
How it was run: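 This HiBiT degradation assay measured loss of BCL-XL in HT1080 cells that stably express an N-terminal HiBiT-BCL-XL fusion delivered by lentivirus. Cells were added to compound-spotted 384-well plates, and luminescence was read on a PHERAstar FSX reader. Signal was expressed relative to DMSO controls, curves were fitted by four-parameter logistic regression, and for hook-shaped curves the Ymin point served as the bottom plateau when calculating EC50.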

T1 sequence (Q07817 whole entry): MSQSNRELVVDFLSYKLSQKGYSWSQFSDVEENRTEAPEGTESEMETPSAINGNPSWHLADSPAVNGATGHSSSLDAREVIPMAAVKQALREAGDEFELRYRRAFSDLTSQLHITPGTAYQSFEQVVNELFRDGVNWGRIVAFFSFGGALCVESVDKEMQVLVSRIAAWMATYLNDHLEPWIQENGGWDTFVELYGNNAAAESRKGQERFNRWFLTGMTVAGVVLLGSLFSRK

Row | Structure (SMILES) | Ymin (6 h) | DC50 (6 h, read-out: EC50 (6 h)) [nM] | Ymin (24 h) | DC50 (24 h, read-out: EC50 (24 h)) [nM]
1 | Cc1c(-c2ccc(N3CCc4cccc(C(=O)Nc5nc6ccccc6s5)c4C3)nc2C(=O)NCCCCCCCCCCCC(=O)Nc2ccc3c(C4CCC(=O)NC4=O)nn(C)c3c2)cnn1CC12CC3CC(CC(C3)C1)C2 (stereo not shown) [Compound 113, 2-(5-(1-((3r,5r,7r)-adamantan-1-ylmethyl)-5-methyl-1H-pyrazol-4-yl)-6-((12-((3-(2,6-dioxopiperidin-3-yl)-1-methyl-1H-indazol-6-yl)amino)-12-oxododecyl)carbamoyl)pyridin-2-yl)-N-(benzo[d]thiazol-2-yl)-1,2,3,4-tetrahydroisoquinoline-8-carboxamide] | B (50% ≤ Ymin < 70%) | 100 to 1000 |  | 
2 | Cc1c(-c2ccc(N3CCc4cccc(C(=O)Nc5nc6ccccc6s5)c4C3)nc2C(=O)NCCCCCCCC(=O)Nc2cccc3c(C4CCC(=O)NC4=O)nn(C)c23)cnn1CC12CC3CC(CC(C3)C1)C2 (stereo not shown) [Compound 114, 2-[5-[1-(1-adamantylmethyl)-5-methyl-pyrazol-4-yl]-6-[[8-[[3-(2,6-dioxo-3-piperidyl)-1-methyl-indazol-7-yl]amino]-8-oxo-octyl]carbamoyl]-2-pyridyl]-N-(1,3-benzothiazol-2-yl)-3,4-dihydro-1H-isoquinoline-8-carboxamide] | A (Ymin < 50%) | < 100 |  | 
3 | Cc1c(-c2ccc(N3CCc4cccc(C(=O)Nc5nc6ccccc6s5)c4C3)nc2C(=O)NCC(=O)Nc2ccc3c(C4CCC(=O)NC4=O)nn(C)c3c2)cnn1CC12CC3CC(CC(C3)C1)C2 [Compound 115, 2-(5-(1-((1R,3S)-adamantan-1-ylmethyl)-5-methyl-1H-pyrazol-4-yl)-6-((2-((3-(2,6-dioxopiperidin-3-yl)-1-methyl-1H-indazol-6-yl)amino)-2-oxoethyl)carbamoyl)pyridin-2-yl)-N-(benzo[d]thiazol-2-yl)-1,2,3,4-tetrahydroisoquinoline-8-carboxamide] | B (50% ≤ Ymin < 70%) | < 100 |  | 
4 | Cc1c(OCCCN2C[C@@H](C)N(CC(=O)Nc3ccc4c(C5CCC(=O)NC5=O)nn(C)c4c3)[C@@H](C)C2)cccc1-c1ccc(N2CCc3cccc(C(=O)Nc4nc5ccccc5s4)c3C2)nc1C(=O)O (stereo partly drawn) [Compound 116a, 6-[8-(1,3-benzothiazol-2-ylcarbamoyl)-3,4-dihydro-1H-isoquinolin-2-yl]-3-[3-[3-[(3S,5R)-4-[2-[[3-(2,6-dioxo-3-piperidyl)-1-methyl-indazol-6-yl]amino]-2-oxo-ethyl]-3,5-dimethyl-piperazin-1-yl]propoxy]-2-methyl-phenyl]pyridine-2-carboxylic acid] | A (Ymin < 50%) | < 100 | A (Ymin < 50%) | < 100
5 | Cc1c(OCCCN2C[C@@H](C)N(CC(=O)Nc3cccc4c(C5CCC(=O)NC5=O)nn(C)c34)[C@@H](C)C2)cccc1-c1ccc(N2CCc3cccc(C(=O)Nc4nc5ccccc5s4)c3C2)nc1C(=O)O (stereo partly drawn) [Compound 117a, 6-[8-(1,3-benzothiazol-2-ylcarbamoyl)-3,4-dihydro-1H-isoquinolin-2-yl]-3-[3-[3-[(3S,5R)-4-[2-[[3-(2,6-dioxo-3-piperidyl)-1-methyl-indazol-7-yl]amino]-2-oxo-ethyl]-3,5-dimethyl-piperazin-1-yl]propoxy]-2-methyl-phenyl]pyridine-2-carboxylic acid] | B (50% ≤ Ymin < 70%) | < 100 | B (50% ≤ Ymin < 70%) | < 100
6 | Cc1c(OCCOc2ccc(CC(=O)Nc3cccc4c(C5CCC(=O)NC5=O)nn(C)c34)cc2)cccc1-c1ccc(N2CCc3cccc(C(=O)Nc4nc5ccccc5s4)c3C2)nc1C(=O)O (stereo not shown) [Compound 118, 6-[8-(1,3-benzothiazol-2-ylcarbamoyl)-3,4-dihydro-1H-isoquinolin-2-yl]-3-[3-[2-[4-[2-[[3-(2,6-dioxo-3-piperidyl)-1-methyl-indazol-7-yl]amino]-2-oxo-ethyl]phenoxy]ethoxy]-2-methyl-phenyl]pyridine-2-carboxylic acid] | B (50% ≤ Ymin < 70%) | 100 to 1000 | B (50% ≤ Ymin < 70%) | 1000 to 10000
7 | Cc1cc(OCCCN2CCN(CC(=O)Nc3ccc4c(C5CCC(=O)NC5=O)nn(C)c4c3)CC2)ccc1-c1ccc(N2CCc3cccc(C(=O)Nc4nc5ccccc5s4)c3C2)nc1C(=O)O (stereo not shown) [Compound 119, 6-[8-(1,3-benzothiazol-2-ylcarbamoyl)-3,4-dihydro-1H-isoquinolin-2-yl]-3-[4-[3-[4-[2-[[3-(2,6-dioxo-3-piperidyl)-1-methyl-indazol-6-yl]amino]-2-oxo-ethyl]piperazin-1-yl]propoxy]-2-methyl-phenyl]pyridine-2-carboxylic acid] | A (Ymin < 50%) | < 100 | A (Ymin < 50%) | < 100
8 | Cc1c(OCCCN2CCC(CC(=O)Nc3ccc4c(C5CCC(=O)NC5=O)nn(C)c4c3)CC2)cccc1-c1ccc(N2CCc3cccc(C(=O)Nc4nc5ccccc5s4)c3C2)nc1C(=O)O (stereo not shown) [Compound 120, 6-[8-(1,3-benzothiazol-2-ylcarbamoyl)-3,4-dihydro-1H-isoquinolin-2-yl]-3-[3-[3-[4-[2-[[3-(2,6-dioxo-3-piperidyl)-1-methyl-indazol-6-yl]amino]-2-oxo-ethyl]-1-piperidyl]propoxy]-2-methyl-phenyl]pyridine-2-carboxylic acid] | B (50% ≤ Ymin < 70%) | < 100 | B (50% ≤ Ymin < 70%) | < 100
9 | Cc1c(OCCCC2CCN(CC(=O)Nc3ccc4c(C5CCC(=O)NC5=O)nn(C)c4c3)CC2)cccc1-c1ccc(N2CCc3cccc(C(=O)Nc4nc5ccccc5s4)c3C2)nc1C(=O)O (stereo not shown) [Compound 121, 6-(8-(Benzo[d]thiazol-2-ylcarbamoyl)-3,4-dihydroisoquinolin-2(1H)-yl)-3-(3-(3-(1-(2-((3-(2,6-dioxopiperidin-3-yl)-1-methyl-1H-indazol-6-yl)amino)-2-oxoethyl)piperidin-4-yl)propoxy)-2-methylphenyl)picolinic acid] | A (Ymin < 50%) | < 100 | A (Ymin < 50%) | < 100
10 | Cc1c(OCCCN2CCC(CC(=O)Nc3cccc4c(C5CCC(=O)NC5=O)nn(C)c34)CC2)cccc1-c1ccc(N2CCc3cccc(C(=O)Nc4nc5ccccc5s4)c3C2)nc1C(=O)O (stereo not shown) [Compound 122, 6-[8-(1,3-benzothiazol-2-ylcarbamoyl)-3,4-dihydro-1H-isoquinolin-2-yl]-3-[3-[3-[4-[2-[[3-(2,6-dioxo-3-piperidyl)-1-methyl-indazol-7-yl]amino]-2-oxo-ethyl]-1-piperidyl]propoxy]-2-methyl-phenyl]pyridine-2-carboxylic acid] | B (50% ≤ Ymin < 70%) | < 100 | B (50% ≤ Ymin < 70%) | < 100
11 | Cc1c(Oc2ccc(CCCNc3ccc4c(C5CCC(=O)NC5=O)nn(C)c4c3)cc2)cccc1-c1ccc(N2CCc3cccc(C(=O)Nc4nc5ccccc5s4)c3C2)nc1C(=O)O (stereo not shown) [Compound 123, 6-[8-(1,3-benzothiazol-2-ylcarbamoyl)-3,4-dihydro-1H-isoquinolin-2-yl]-3-[3-[4-[3-[[3-(2,6-dioxo-3-piperidyl)-1-methyl-indazol-6-yl]amino]propyl]phenoxy]-2-methyl-phenyl]pyridine-2-carboxylic acid] | C (Ymin ≥ 70%) | 100 to 1000 |  | 
12 | Cc1c(O[C@H]2CC[C@H](CCC(=O)Nc3cccc4c(C5CCC(=O)NC5=O)nn(C)c34)CC2)cccc1-c1ccc(N2CCc3cccc(C(=O)Nc4nc5ccccc5s4)c3C2)nc1C(=O)O (stereo partly shown) [Compound 124a, 6-(8-(benzo[d]thiazol-2-ylcarbamoyl)-3,4-dihydroisoquinolin-2(1H)-yl)-3-(3-(((1r,4r)-4-(3-((3-(2,6-dioxopiperidin-3-yl)-1-methyl-1H-indazol-7-yl)amino)-3-oxopropyl)cyclohexyl)oxy)-2-methylphenyl)picolinic acid] | C (Ymin ≥ 70%) | 1000 to 10000 | C (Ymin ≥ 70%) | < 100
13 | Cc1c(O[C@H]2CC[C@H](CCC(=O)Nc3ccc4c(C5CCC(=O)NC5=O)nn(C)c4c3)CC2)cccc1-c1ccc(N2CCc3cccc(C(=O)Nc4nc5ccccc5s4)c3C2)nc1C(=O)O (stereo partly shown) [Compound 125a, 6-(8-(benzo[d]thiazol-2-ylcarbamoyl)-3,4-dihydroisoquinolin-2(1H)-yl)-3-(3-(((1r,4r)-4-(3-((3-(2,6-dioxopiperidin-3-yl)-1-methyl-1H-indazol-6-yl)amino)-3-oxopropyl)cyclohexyl)oxy)-2-methylphenyl)picolinic acid] | C (Ymin ≥ 70%) | 1000 to 10000 | C (Ymin ≥ 70%) | 1000 to 10000
14 | Cn1nc(C2CCC(=O)NC2=O)c2ccc(NC(=O)CN3CCN(CCOc4cccc(-c5ccc(N6CCc7cccc(C(=O)Nc8nc9ccccc9s8)c7C6)nc5C(=O)O)c4C(F)(F)F)CC3)cc21 (stereo not shown) [Compound 126, 6-(8-(benzo[d]thiazol-2-ylcarbamoyl)-3,4-dihydroisoquinolin-2(1H)-yl)-3-(3-(2-(4-(2-((3-(2,6-dioxopiperidin-3-yl)-1-methyl-1H-indazol-6-yl)amino)-2-oxoethyl)piperazin-1-yl)ethoxy)-2-(trifluoromethyl)phenyl)picolinic acid] | B (50% ≤ Ymin < 70%) | 100 to 1000 |  | 
